Assay type in all cases: in vivo
In series [1] the test system is pentobarbital hypnosis time. Put plainly: Action on the pentobarbital hypnosis time in the mouse. To be noted: po, 0.5 h, 30 minutes before pentobarbital 50 mg/kg i.v., vs control, read-out: Percentage variation in pentobarbital hypnosis time; for change in vivo at 500 mg/kg: 500 mg/kg p.o.; for change in vivo at 250 mg/kg: 250 mg/kg p.o. From the text:
2.2--Action on the pentobarbital hypnosis time in the mouse
The hypnosis time of each mouse is counted in minutes from the moment when the animal may be placed without resistance on its back until that when it spontaneously gets back on its feet.

The nature of series [2]: Acute toxicity for oral administration in mice. The conditions noted are these: mouse, in vivo, suspension in 10% gum arabic. As to the method:
1--ACUTE TOXICITY FOR ORAL ADMINISTRATION IN MICE
The compounds are administered orally in increasing doses in suspension in a 10% gum arabic solution to groups of 5 .female. mice of mean weight 25 g. The 50% lethal doses (LD 50) are calculated by the method of KARBER and BEHRENS (Arch. Exp. Path. Pharmakol. 1935, 177, 379-388).
The LD 50's found are summarised in Table IV below and indicate that the tested compounds have low toxicity.

Series [3] deals with spontaneous motor activity. Put plainly: Action on spontaneous motor activity in the mouse (BOISSIER). To be noted: po, 0.5 h, 30 minutes after administration, vs control, read-out: Percentage variation in motor activity; for change in vivo at 500 mg/kg: 500 mg/kg p.o.; for change in vivo at 250 mg/kg: 250 mg/kg p.o. As to the method: 2.1--Action on spontaneous motor activity in the mouse
30 minutes after administration per os of the test compounds, the mice (groups of 12 animals) are installed in individual cages in a BOISSIER activity measuring cupboard and move about before two photoelectric cells placed according to the rectangular coordinates. Meters register the movement during 20 minutes.

Series [4] has as its system convulsant effects of electric shock. Put plainly: Action against the convulsant effects of electric shock in the mouse. The conditions noted are these: po, 0.5 h, 30 minutes before shock, 13 to 16 mA for 0.1 sec, read-out: Percentage protection against the convulsant effects of the electric shock; for responders at 500 mg/kg: 500 mg/kg p.o. The protocol:
2.3--Test on the action against the convulsant effects of electric shock and of strychnine in the mouse
30 minutes after administration of the compounds to groups of 10 animals, there is investigated the protection induced against:
tonic crisis (extension of rear feet) provoked by supramaximal transcranial electric stimulation (13 to 16 mA for 0.1 sec).
The results are expressed as a percentage of protection based on a control group which have only received the administration vehicle for the compounds.

In the case of `COc1cc(NCC(=O)N2CCN(C)CC2)cc(OC)c1OC` [compound 786], the change in vivo at 170 mg/kg in series [1] (170 mg/kg p.o.) is 172%; in series [3] (170 mg/kg p.o.), -20%. Further, the 50% lethal dose (LD50) in series [2] (po) is 1700 mg/kg.

On to `COc1cc(NC(=O)OCCN2CCOCC2)cc(OC)c1OC` [compound 818], for which the change in vivo at 350 mg/kg is 180% in series [1] (350 mg/kg p.o.) and -33% in series [3] (350 mg/kg p.o.). The LD50 in series [2] was 3500 mg/kg.

The compound `COc1cc(NC(=O)ON2CCOCC2)cc(OC)c1OC` [compound 828] showed a 50% lethal dose (LD50) in series [2] of over 5000 mg/kg.

`CCCCN(CCCC)C(=O)Nc1cc(OC)c(OC)c(OC)c1` [compound 780] yielded a 50% lethal dose (LD50) in series [2] (po) of over 5000 mg/kg.

On to `COc1cc(NC(=O)N2CCCC2)cc(OC)c1OC` [compound 810], for which the change in vivo at 375 mg/kg was 148% in series [1] (375 mg/kg p.o.) and -38% in series [3] (375 mg/kg p.o.). For the same compound, in series [2] (po), the LD50 is 3750 mg/kg. For the same compound, in series [4] (375 mg/kg p.o.), the responders at 375 mg/kg turned out to be 70%.

Turning to `COc1cc(CNC(=O)Nc2cc(OC)c(OC)c(OC)c2)cc(OC)c1OC` [compound 798], the change in vivo at 500 mg/kg in series [1] is 145%; in series [3], -20%. The LD50 in series [2] (po) is over 5000 mg/kg. Further, the responders at 500 mg/kg in series [4] came out at 40%.

Take `COc1cc(NCC(=O)N2CCOc3ccc(Cl)cc32)cc(OC)c1OC` [compound 762]: the 50% lethal dose (LD50) in series [2] (po) is over 5000 mg/kg.

`COc1cc(NC(=O)NC2CCCC2)cc(OC)c1OC` [compound 800]: the LD50 in series [2] (po) is over 5000 mg/kg.

In series [2] (po), `COc1cc(NC(=O)NCCc2ccccc2)cc(OC)c1OC` [compound 783] registered an LD50 of over 5000 mg/kg.

With `CCN(CC)C(=O)Nc1cc(OC)c(OC)c(OC)c1` [compound 809], the results for the change in vivo at 300 mg/kg in series [1] (300 mg/kg p.o.) and in series [3] (300 mg/kg p.o.) were 157% and -78%, respectively. This compound displayed an LD50 in series [2] (po) of 3000 mg/kg. Also, the responders at 300 mg/kg in series [4] (300 mg/kg p.o.) is 80%.

As to `COc1cc(NC(=O)N2CCCCCC2)cc(OC)c1OC` [compound 813], the LD50 in series [2] (po) is 3000 mg/kg.

Take `COc1cc(NC(=O)N(C)CCCN(C)C)cc(OC)c1OC` [compound 805]: the LD50 in series [2] (po) came to 2500 mg/kg.

`COc1cc(NCC(=O)N2CCOc3ccccc32)cc(OC)c1OC` [compound 782] showed an LD50 in series [2] (po) of over 5000 mg/kg.

`COc1cc(NC(=O)CCN2CCN(c3cccc(C(F)(F)F)c3)CC2)cc(OC)c1OC` [compound 841] returned a median lethal dose (LD50) in series [2] (po) of over 5000 mg/kg.

Turning to `C=CCN(C(=O)Nc1cc(OC)c(OC)c(OC)c1)C1CCCCC1` [compound 811], the median lethal dose (LD50) in series [2] (po) was determined as 5000 mg/kg.

The compound `COc1cc(NC(=O)NC2CCCCCCC2)cc(OC)c1OC` [compound 781] returned a 50% lethal dose (LD50) in series [2] (po) of over 5000 mg/kg.

In series [2] (po), `COc1cc(NC(=O)N2CCOc3ccccc32)cc(OC)c1OC` [compound 774] registered an LD50 of over 5000 mg/kg.

On to `COc1cc(NC(=O)CN2CCOc3ccccc32)cc(OC)c1OC` [compound 792], for which the 50% lethal dose (LD50) in series [2] (po) is over 5000 mg/kg.

Regarding `COc1cc(N(CCN2CCOCC2)C(=O)N2CCOCC2)cc(OC)c1OC` [compound 822], the LD50 in series [2] (po) was found to be 5000 mg/kg.

In the case of `COc1cc(NC(=O)NC2CCCCC2)cc(OC)c1OC` [compound 778], the LD50 in series [2] (po) is over 5000 mg/kg.

For `COc1cc(NC(=O)CN2CCOCC2)cc(OC)c1OC` [compound 787], the figures for the change in vivo at 250 mg/kg in series [1] and in series [3] were 141% and -84%, respectively. The 50% lethal dose (LD50) in series [2] (po) came to 2500 mg/kg.

Turning to `COc1cc(NC(=O)NN2CCOCC2)cc(OC)c1OC` [compound 807], the change in vivo at 250 mg/kg in series [1] is 98%; in series [3] it was -33%. Further, in series [2] (po), the LD50 stood at 2500 mg/kg.

In series [2] (po), `COc1cc(NCC(=O)N2CCOCC2)cc(OC)c1OC` [compound 793] displayed an LD50 of 1250 mg/kg.

With `COc1cc(NC(=O)NCCc2ccc(Cl)cc2)cc(OC)c1OC` [compound 796], in series [2] (po), the 50% lethal dose (LD50) was over 5000 mg/kg.

As for `COc1cc(OC(=O)N2CCOc3ccccc32)cc(OC)c1OC` [compound 773], the LD50 in series [2] is over 5000 mg/kg.

Take `COc1cc(NC(=O)NC(=O)CN2CCOCC2)cc(OC)c1OC` [compound 834]: the LD50 in series [2] (po) is 3380 mg/kg.

In series [2] (po), `COc1cc(NC(=O)CN2CCN(c3cccc(C(F)(F)F)c3)CC2)cc(OC)c1OC` [compound 838] returned a 50% lethal dose (LD50) of over 5000 mg/kg.

As for `COc1cc(NCC(=O)N2CCN(c3ccccc3)CC2)cc(OC)c1OC` [compound 837], the median lethal dose (LD50) in series [2] (po) is over 5000 mg/kg.

As to `COc1cc(NC(=O)NCC2CCCCO2)cc(OC)c1OC` (stereo not shown) [compound 815], the 50% lethal dose (LD50) in series [2] (po) was 5000 mg/kg.

For the compound `COc1cc(NC(=O)CCN2CCC(O)(c3ccc(Cl)cc3)CC2)cc(OC)c1OC` [compound 829], the LD50 in series [2] is over 5000 mg/kg.

In the case of `COc1cc(NC(=O)N2CCSCC2)cc(OC)c1OC` [compound 804], the change in vivo at 500 mg/kg in series [1] was 120%; in series [3] it was -24%. This compound also had an LD50 in series [2] (po) of over 5000 mg/kg.

In series [2] (po), `COc1cc(NC(=O)N2CCN(C(=O)Nc3cc(OC)c(OC)c(OC)c3)CC2)cc(OC)c1OC` [compound 840] came in with a 50% lethal dose (LD50) of over 5000 mg/kg.

Take `COc1cc(N(Cc2ccccc2)C(=O)N2CCOCC2)cc(OC)c1OC` [compound 821]: in series [2] (po), the LD50 was 2500 mg/kg.

Regarding `COc1cc(NC(=O)N2CCN(C(c3ccccc3)c3ccc(Cl)cc3)CC2)cc(OC)c1OC` (stereo not shown) [compound 795], the 50% lethal dose (LD50) in series [2] (po) was over 5000 mg/kg.

In series [2] (po), `COc1cc(NC(=O)N2CC(C)OC(C)C2)cc(OC)c1OC` (stereo not shown) [compound 788] came in with a median lethal dose (LD50) of 1350 mg/kg. For the same compound, the change in vivo at 135 mg/kg in series [3] (135 mg/kg p.o.) was -34%.

In series [2] (po), `COc1cc(NC(=O)NCCCN(C)C)cc(OC)c1OC` [compound 785] returned a 50% lethal dose (LD50) of 2200 mg/kg.

`C=C(C)CNC(=O)Nc1cc(OC)c(OC)c(OC)c1` [compound 812] showed a 50% lethal dose (LD50) in series [2] (po) of 2000 mg/kg.

Regarding `COc1cc(NC(=O)N2CCCO2)cc(OC)c1OC` [compound 820], the LD50 in series [2] (po) was 1250 mg/kg.

For `COc1cc(NC(=O)NC2CCCCCC2)cc(OC)c1OC` [compound 799], the LD50 in series [2] (po) was over 5000 mg/kg.

The compound `COc1cc(NC(=O)N2CCOc3ccc(Cl)cc32)cc(OC)c1OC` [compound 770] came in with an LD50 in series [2] (po) of over 5000 mg/kg.

The compound `COc1cc(NC(=O)CN2CCN(CC(=O)Nc3cc(OC)c(OC)c(OC)c3)CC2)cc(OC)c1OC` [compound 848] returned an LD50 in series [2] (po) of over 5000 mg/kg.

In series [2] (po), `COc1cc(NC(=O)NCC2CCCO2)cc(OC)c1OC` (stereo not shown) [compound 797] yielded an LD50 of 4400 mg/kg.

`COc1cc(NC(=O)Nc2ccnc3cc(Cl)ccc23)cc(OC)c1OC` [compound 777] registered an LD50 in series [2] (po) of over 5000 mg/kg.

In series [2] (po), `COc1cc(NC(=O)N2CCC(O)CC2)cc(OC)c1OC` [compound 814] had a median lethal dose (LD50) of 5000 mg/kg.

In series [2] (po), `COc1cc(NC(=O)NC(C)CN(C)C)cc(OC)c1OC` (stereo not shown) [compound 784] gave a median lethal dose (LD50) of 3380 mg/kg.

`COc1cc(OC(=O)N2CCN(C)CC2)cc(OC)c1OC` [compound 767] registered an LD50 in series [2] of 1020 mg/kg.

Take `COc1cc(NC(=O)CCN2CCOCC2)cc(OC)c1OC` [compound 817]: the change in vivo at 500 mg/kg is 300% in series [1] and -17% in series [3]. The same compound returned an LD50 in series [2] (po) of 5000 mg/kg. For the same compound, in series [4], the responders at 500 mg/kg stood at 40%.

Regarding `COc1cc(NC(=O)N2CCOC(C)C2)cc(OC)c1OC` (stereo not shown) [compound 816], the median lethal dose (LD50) in series [2] (po) is 2500 mg/kg.

Turning to `COc1cc(NS(=O)(=O)N2CCOCC2)cc(OC)c1OC` [compound 791], the values for the change in vivo at 500 mg/kg in series [1] and in series [3] were 200% and -53%, respectively. In series [2] (po), the LD50 was over 5000 mg/kg.

In series [2] (po), `COc1cc(NC(=O)N(C)C2CCCCC2)cc(OC)c1OC` [compound 802] gave an LD50 of over 5000 mg/kg.

`COc1cc(NC(=O)N2CCN(CC(=O)N3CCCCC3)CC2)cc(OC)c1OC` [compound 830] showed a 50% lethal dose (LD50) in series [2] (po) of 5000 mg/kg.

One may read the LD50 as the dose expected to kill half of the subjects tested. A high value points to a less toxic substance.

The values are drawn from patent US4252804A, “Therapeutically useful 3,4,5-trimethoxybenzene derivatives” (Metabio-Joullie, priority 1977, dated 1981).
